As usually defined, the GI50 is the concentration at which growth is held to half of that of the control. What is called IC50 is the concentration at which inhibition is half-maximal.

Read-outs that look alike come from different tables or passages of the source.

This passage reports GI50 and IC50 results from US11535629B2, “Dioxoloisoquinolinone derivatives and use thereof” (HANMI PHARMACEUTICAL CO., LTD., priority 2020, dated 2022).

In assay [1] the test system is KARPAS-422 cells. Kind of assay: Cell growth inhibition test (CTG method). Type of assay: cell-based. As to conditions: KARPAS-422 (EZH2^Y641N mutant), culturing for 7 days, read-out: Cell growth inhibitory activity (GI50, nM) KARPAS-422 (EZH2^Y641N mutant). The procedure: The cultured cell strain was prepared at 1.8×10^4 cells/400 μL and placed in a 48-well plate.

The target in assay [2] is EZH1 (Homo sapiens (Human), UniProt Q92800). Kind of assay: EZH1 methyltransferase inhibitory activity (radiometric scintillation proximity assay). (Scintillation proximity formats need no separation of bound from free tracer.)
EZH1, sequence (Q92800 whole entry): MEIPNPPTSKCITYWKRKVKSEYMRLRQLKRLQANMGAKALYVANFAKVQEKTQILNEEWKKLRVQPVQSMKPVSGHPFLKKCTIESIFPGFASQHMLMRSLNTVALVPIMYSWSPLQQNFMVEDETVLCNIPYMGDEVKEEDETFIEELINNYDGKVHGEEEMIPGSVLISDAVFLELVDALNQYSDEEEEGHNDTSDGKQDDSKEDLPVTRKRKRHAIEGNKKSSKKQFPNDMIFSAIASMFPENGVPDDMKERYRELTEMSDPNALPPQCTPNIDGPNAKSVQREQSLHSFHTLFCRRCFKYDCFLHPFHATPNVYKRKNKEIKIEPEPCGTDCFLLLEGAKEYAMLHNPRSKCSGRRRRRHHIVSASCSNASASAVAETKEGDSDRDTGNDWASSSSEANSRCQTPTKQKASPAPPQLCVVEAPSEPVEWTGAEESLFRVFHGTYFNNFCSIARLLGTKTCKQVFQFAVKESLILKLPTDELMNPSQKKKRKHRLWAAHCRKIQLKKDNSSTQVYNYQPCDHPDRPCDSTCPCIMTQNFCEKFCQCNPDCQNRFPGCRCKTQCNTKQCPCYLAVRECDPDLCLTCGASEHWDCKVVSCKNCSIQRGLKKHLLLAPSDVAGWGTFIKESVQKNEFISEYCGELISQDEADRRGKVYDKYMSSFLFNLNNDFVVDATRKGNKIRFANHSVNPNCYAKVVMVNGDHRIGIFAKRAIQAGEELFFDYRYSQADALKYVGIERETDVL
EZH1, sequence (O75530 whole entry partner): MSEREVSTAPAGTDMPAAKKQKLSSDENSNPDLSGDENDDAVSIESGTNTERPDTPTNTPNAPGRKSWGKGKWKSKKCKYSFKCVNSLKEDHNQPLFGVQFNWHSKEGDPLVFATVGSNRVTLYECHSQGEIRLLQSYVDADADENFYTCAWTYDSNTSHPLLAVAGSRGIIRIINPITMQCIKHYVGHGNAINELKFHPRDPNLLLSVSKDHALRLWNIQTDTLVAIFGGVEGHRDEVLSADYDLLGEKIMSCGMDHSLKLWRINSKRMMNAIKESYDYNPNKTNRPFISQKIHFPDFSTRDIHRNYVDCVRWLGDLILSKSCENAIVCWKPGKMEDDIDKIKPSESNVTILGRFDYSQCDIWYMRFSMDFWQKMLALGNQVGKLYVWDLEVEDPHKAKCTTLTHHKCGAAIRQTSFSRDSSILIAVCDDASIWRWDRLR
EZH1, sequence (Q15022 whole entry partner): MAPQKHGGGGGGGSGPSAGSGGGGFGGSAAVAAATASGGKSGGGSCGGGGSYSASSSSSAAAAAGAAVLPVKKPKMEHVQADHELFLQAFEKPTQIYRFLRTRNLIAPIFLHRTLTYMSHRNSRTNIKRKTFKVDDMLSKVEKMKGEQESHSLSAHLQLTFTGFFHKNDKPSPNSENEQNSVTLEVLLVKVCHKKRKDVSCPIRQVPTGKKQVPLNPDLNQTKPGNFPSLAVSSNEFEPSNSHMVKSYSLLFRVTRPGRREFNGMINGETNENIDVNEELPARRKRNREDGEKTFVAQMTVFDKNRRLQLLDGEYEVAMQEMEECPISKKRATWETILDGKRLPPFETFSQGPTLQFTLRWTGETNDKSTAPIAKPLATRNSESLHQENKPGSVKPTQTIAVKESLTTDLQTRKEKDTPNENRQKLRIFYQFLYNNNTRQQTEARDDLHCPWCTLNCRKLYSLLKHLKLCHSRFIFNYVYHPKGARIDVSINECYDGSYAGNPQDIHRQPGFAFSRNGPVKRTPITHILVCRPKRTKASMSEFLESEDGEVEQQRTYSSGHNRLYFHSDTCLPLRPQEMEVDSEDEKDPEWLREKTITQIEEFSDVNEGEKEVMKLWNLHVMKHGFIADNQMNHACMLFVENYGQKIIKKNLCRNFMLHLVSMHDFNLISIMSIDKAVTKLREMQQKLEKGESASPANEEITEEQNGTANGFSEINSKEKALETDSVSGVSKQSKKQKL
EZH1, sequence (Q09028 whole entry partner): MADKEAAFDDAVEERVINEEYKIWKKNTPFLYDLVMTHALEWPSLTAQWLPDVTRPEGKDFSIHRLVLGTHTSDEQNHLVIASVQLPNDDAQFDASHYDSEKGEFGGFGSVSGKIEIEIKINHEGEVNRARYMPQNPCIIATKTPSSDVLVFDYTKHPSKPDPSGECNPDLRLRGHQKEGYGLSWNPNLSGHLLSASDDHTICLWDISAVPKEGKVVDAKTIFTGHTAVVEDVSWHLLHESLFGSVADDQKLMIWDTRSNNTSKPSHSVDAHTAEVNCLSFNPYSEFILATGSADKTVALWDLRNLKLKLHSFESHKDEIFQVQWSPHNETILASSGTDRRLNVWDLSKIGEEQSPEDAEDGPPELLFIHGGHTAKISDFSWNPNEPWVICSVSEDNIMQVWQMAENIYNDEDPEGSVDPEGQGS
EZH1, sequence (Q6ZN18 whole entry partner): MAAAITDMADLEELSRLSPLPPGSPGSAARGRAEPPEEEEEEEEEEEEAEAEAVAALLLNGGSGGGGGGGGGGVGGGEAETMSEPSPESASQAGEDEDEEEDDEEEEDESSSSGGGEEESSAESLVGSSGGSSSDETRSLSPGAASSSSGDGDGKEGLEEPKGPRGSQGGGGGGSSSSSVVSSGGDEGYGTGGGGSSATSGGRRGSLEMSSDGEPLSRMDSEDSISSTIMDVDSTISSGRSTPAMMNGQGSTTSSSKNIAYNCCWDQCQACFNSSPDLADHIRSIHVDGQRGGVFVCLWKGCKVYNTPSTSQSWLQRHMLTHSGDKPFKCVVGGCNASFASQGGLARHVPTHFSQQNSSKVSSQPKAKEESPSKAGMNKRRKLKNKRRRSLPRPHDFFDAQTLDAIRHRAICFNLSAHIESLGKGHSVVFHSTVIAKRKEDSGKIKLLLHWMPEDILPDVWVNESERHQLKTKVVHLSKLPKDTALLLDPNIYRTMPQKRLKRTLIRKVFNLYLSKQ
Protocol: The inhibitory activity of the synthesized compounds above against EZH1 or EZH2 methyltransferase was measured. The experiments were consigned to Reaction Biology, and EZH1 or EZH2 activity was measured using a radiometric scintillation proximity assay. […] The buffer solution was comprised of 50 mmol/L Tris-HCl pH 8.0, 50 mmol/L NaCl, 1 mmol/L EDTA, 1 mmoL/L DTT, 1 mmol/L PMSF and 1% DMSO. Trichloroacetic acid was added to end the reaction, and SPA beads coated with PVT streptavidin were added followed by 1 hour reaction at room temperature. A TopCount NXT plate reader was used to measure the methylation value of the substrate peptide. The measured values were converted to percent activity, setting the mean value for wells treated with DMSO as 100% and the background mean value as 0%.
Where [3] appears, read: Homo sapiens, KARPAS-422, 168 h.
Setting [4] is: read-out: Enzyme inhibitory activity (IC50, nM) EZH1, 2.3 nmol/L EZH1, 90 minutes at room temperature.

For the compound `CSc1cc(C)[nH]c(=O)c1CN1CCc2c(Cl)c3c(c(C)c2C1=O)OC(C)(C12CCC(N(C)C)(CC1)CC2)O3` (single isomer, unassigned) [Compound 8, 9-chloro-2-(4-(dimethylamino)bicyclo[2.2.2]octan-1-yl)-2,4-dimethyl-6-((6-methyl-4-(methylthio)-2-oxo-1,2-dihydropyridin-3-yl)methyl)-7,8-dihydro[1,3]dioxolo[4,5-g]isoquinolin-5(6H)-one], the GI50 in assay [1] came out at 3.9 nM. For the same compound, 167 nM corresponded to half-maximal inhibition in assay [2] (IC50).
In the case of `Cc1cc(C)c(CN2CCc3c(c(C)c4c(c3-c3cncs3)O[C@](C)([C@H]3CC[C@H](N(C)C)CC3)O4)C2=O)c(=O)[nH]1` [Compound 52, (R)-6-((4,6-dimethyl-2-oxo-1,2-dihydropyridin-3-yl)methyl)-2-(trans-4-(dimethylamino)cyclohexyl)-2,4-dimethyl-9-(thiazol-5-yl)-7,8-dihydro-[1,3]dioxolo[4,5-g]isoquinolin-5(6H)-one], the GI50 in assay [1] (setting [3]) came to 5.9 nM. In addition, the IC50 in assay [2] (setting [4]) is 18 nM.
In the case of `COc1cc(C)[nH]c(=O)c1CN1CCc2c(Cl)c3c(c(C)c2C1=O)OC(C)(C12CCC(N(C)C)(CC1)CC2)O3` (single isomer, unassigned) [Compound 5, 9-chloro-2-(4-(dimethylamino)bicyclo[2.2.2]octan-1-yl)-6-((4-methoxy-6-methyl-2-oxo-1,2-dihydropyridin-3-yl)methyl)-2,4-dimethyl-7,8-dihydro[1,3]dioxolo[4,5-g]isoquinolin-5(6H)-one], the GI50 in assay [1] was 4.5 nM. Further, the IC50 in assay [2] came out at 17 nM.
Regarding `Cc1cc(C)c(CN2CCc3c(Cl)c4c(c(C)c3C2=O)OC(C)(C23CCC(N(C)C)(CC2)CC3)O4)c(=O)[nH]1` (single isomer, unassigned) [Compound 2, 9-chloro-6-((4,6-dimethyl-2-oxo-1,2-dihydropyridin-3-yl)methyl)-2-(4-(dimethylamino)bicyclo[2.2.2]octan-1-yl)-2,4-dimethyl-7,8-dihydro-[1,3]dioxolo[4,5-g]isoquinolin-5(6H)-one], the GI50 in assay [1] was 4.5 nM. The IC50 in assay [2] was 15 nM.
`Cc1cc(C)c(CN2CCc3c(Br)c4c(c(C)c3C2=O)OC(C)(C23CCC(N(C)C)(CC2)CC3)O4)c(=O)[nH]1` (single isomer, unassigned) [Compound 11, 9-bromo-6-((4,6-dimethyl-2-oxo-1,2-dihydropyridin-3-yl)methyl)-2-(4-(dimethylamino)bicyclo[2.2.2]octan-1-yl)-2,4-dimethyl-7,8-dihydro-[1,3]dioxolo[4,5-g]isoquinolin-5(6H)-one]: in assay [1], the GI50 was 3.8 to 12 nM. Besides, the IC50 in assay [2] came to 15 nM.
With `Cc1cc(C)c(CN2CCc3c(c(C)c4c(c3-c3cccs3)O[C@](C)([C@H]3CC[C@H](N(C)C)CC3)O4)C2=O)c(=O)[nH]1` [Compound 32, (R)-6-((4,6-dimethyl-2-oxo-1,2-dihydropyridin-3-yl)methyl)-2-(trans-4-(dimethylamino)cyclohexyl)-2,4-dimethyl-9-(thiophen-2-yl)-7,8-dihydro-[1,3]dioxolo[4,5-g]isoquinolin-5(6H)-one], the GI50 in assay [1] (setting [3]) was found to be 3.4 nM. In addition, the IC50 in assay [2] (setting [4]) was 12 nM.
Regarding `Cc1cc(C)c(CN2CCc3c(c(C)c4c(c3-c3ccco3)O[C@](C)([C@H]3CC[C@H](N(C)C)CC3)O4)C2=O)c(=O)[nH]1` [Compound 30, (R)-6-((4,6-dimethyl-2-oxo-1,2-dihydropyridin-3-yl)methyl)-2-(trans-4-(dimethylamino)cyclohexyl)-9-(furan-2-yl)-2,4-dimethyl-7,8-dihydro-[1,3]dioxolo[4,5-g]isoquinolin-5(6H)-one], in assay [1] (setting [3]), the GI50 fell in the range of 3.9 to 8.4 nM. In assay [2], this compound returned an IC50 of 8.3 to 10 nM.
Regarding `Cc1cc(C)c(CN2CCc3c(c(C)c4c(c3-c3ccsc3)O[C@](C)([C@H]3CC[C@H](N(C)C)CC3)O4)C2=O)c(=O)[nH]1` [Compound 50, (R)-6-((4,6-dimethyl-2-oxo-1,2-dihydropyridin-3-yl)methyl)-2-(trans-4-(dimethylamino)cyclohexyl)-2,4-dimethyl-9-(thiophen-3-yl)-7,8-dihydro-[1,3]dioxolo[4,5-g]isoquinolin-5(6H)-one], in assay [1] (setting [3]), the 50% growth inhibitory concentration (GI50) worked out at 4.9 nM. Besides, the IC50 in assay [2] (setting [4]) is 22 nM.
The like results for `Cc1cc(C)c(CN2CCc3c(c(C)c4c(c3-c3cccnc3)O[C@](C)([C@H]3CC[C@H](N(C)C)CC3)O4)C2=O)c(=O)[nH]1` [Compound 44, (R)-6-((4,6-dimethyl-2-oxo-1,2-dihydropyridin-3-yl)methyl)-2-(trans-4-(dimethylamino)cyclohexyl)-2,4-dimethyl-9-(pyridin-3-yl)-7,8-dihydro-[1,3]dioxolo[4,5-g]isoquinolin-5(6H)-one] were, in that order, 5.1 nM and 14 nM.
Regarding `Cc1cc(C)c(CN2CCc3c(c(C)c4c(c3-c3ccc(C)o3)O[C@](C)([C@H]3CC[C@H](N(C)C)CC3)O4)C2=O)c(=O)[nH]1` [Compound 40, (R)-6-((4,6-dimethyl-2-oxo-1,2-dihydropyridin-3-yl)methyl)-2-(trans-4-(dimethylamino)cyclohexyl)-2,4-dimethyl-9-(5-methylfuran-2-yl)-7,8-dihydro-[1,3]dioxolo[4,5-g]isoquinolin-5(6H)-one], the GI50 in assay [1] (setting [3]) was 4.4 to 5.5 nM. Also, the IC50 in assay [2] (setting [4]) worked out at 22 nM.
For `Cc1cc(C)c(CN2CCc3c(C)c4c(c(C)c3C2=O)OC(C)(C23CCC(N(C)C)(CC2)CC3)O4)c(=O)[nH]1` (single isomer, unassigned) [Compound 23, 6-((4,6-dimethyl-2-oxo-1,2-dihydropyridin-3-yl)methyl)-2-(4-(dimethylamino)bicyclo[2.2.2]octan-1-yl)-2,4,9-trimethyl-7,8-dihydro-[1,3]dioxolo[4,5-g]isoquinolin-5(6H)-one], the GI50 in assay [1] (setting [3]) fell in the range of 3.7 to 6.8 nM. In assay [2], 12 nM corresponded to half-maximal inhibition (IC50).
As to `Cc1cc(C)c(CN2CCc3c(c(C)c4c(c3-c3cccn3C)O[C@](C)([C@H]3CC[C@H](N(C)C)CC3)O4)C2=O)c(=O)[nH]1` [Compound 48, (R)-6-((4,6-dimethyl-2-oxo-1,2-dihydropyridin-3-yl)methyl)-2-(trans-4-(dimethylamino)cyclohexyl)-2,4-dimethyl-9-(1-methyl-1H-pyrrol-2-yl)-7,8-dihydro-[1,3]dioxolo[4,5-g]isoquinolin-5(6H)-one], the GI50 in assay [1] (setting [3]) amounted to 5.5 nM. Also, the IC50 in assay [2] (setting [4]) turned out to be 20 nM.
For the compound `Cc1cc(C)c(CN2CCc3c(c(C)c4c(c3-c3ccncc3)O[C@](C)([C@H]3CC[C@H](N(C)C)CC3)O4)C2=O)c(=O)[nH]1` [Compound 34, (R)-6-((4,6-dimethyl-2-oxo-1,2-dihydropyridin-3-yl)methyl)-2-(trans-4-(dimethylamino)cyclohexyl)-2,4-dimethyl-9-(pyridin-4-yl)-7,8-dihydro-[1,3]dioxolo[4,5-g]isoquinolin-5(6H)-one], the GI50 in assay [1] (setting [3]) was 3.7 nM. For the same compound, in assay [2] (setting [4]), the IC50 came to 32 nM.
With `Cc1cc(C)c(CN2CCc3c(c(C)c4c(c3-c3cncnc3)O[C@](C)([C@H]3CC[C@H](N(C)C)CC3)O4)C2=O)c(=O)[nH]1` [Compound 46, (R)-6-((4,6-dimethyl-2-oxo-1,2-dihydropyridin-3-yl)methyl)-2-(trans-4-(dimethylamino)cyclohexyl)-2,4-dimethyl-9-(pyrimidin-5-yl)-7,8-dihydro-[1,3]dioxolo[4,5-g]isoquinolin-5(6H)-one], in assay [1] (setting [3]), the GI50 was 7 nM.
Consider `Cc1cc(C)c(CN2CCc3c(C)c4c(c(C)c3C2=O)OC(C)(C23CCC(N(C)C)(CC2)CC3)O4)c(=O)[nH]1` (stereo not shown) [Compound 24, 6-((4,6-dimethyl-2-oxo-1,2-dihydropyridin-3-yl)methyl)-2-(4-(dimethylamino)bicyclo[2.2.2]octan-1-yl)-2,4,9-trimethyl-7,8-dihydro-[1,3]dioxolo[4,5-g]isoquinolin-5(6H)-one], for which the GI50 in assay [1] lay within 100 to 1000 nM.
